Data taken from patent US11116747B2, “Compositions comprising proanthocyanidins and oenothein B” (Nugerontix Limited, priority 2014, dated 2021).

Assays:
[1] = system: endothelial nitric oxide synthase (eNOS) mRNA; experiment: eNOS mRNA levels in endothelial cells by qRT-PCR; assay type: cell-based, bovine; conditions: 24 h; OTb 1 μg/ml, Ap-OPC 1 μg/ml; normalised to RNA polymerase 2; FIG. 4(B)
Protocol: (§1) The effects on endothelin-1 synthesis of purified procyanidins and ellagitannins, either alone or in combination, are tested on human, bovine or porcine aortic endothelial cells cultured in multi-well plates. Cells are grown in a CO2 incubator with specific growth media until becoming confluent. Purified extracts, chromatography fractions, or isolated procyanidins and ellagitannins are evaluated after dilution in cell culture media and then incubated for up to 24 h with the cultured cells. At the end of the incubation period cell culture media samples are collected, and endothelin-1 synthesis is determined by immunoassay of the media samples. ET-1 release for each treated well is expressed as a percentage of basal release from control wells containing cells incubated with cell culture medium alone. Data are compared and analysed for statistically significant differences using life sciences software such as Graphpad Prism (available from www.graphpad.com). At the end of the incubation period cells are lysed to obtain mRNA to measure changes in gene expression that indicate improved endothelial function. Analyses of relative levels of mRNA transcripts are undertaken by quantitative reverse transcription polymerase chain reaction (qRT-PCR) (Journal of Agricultural and Food Chemistry, 2010, 58: 4008-13). […]

[2] = system: Kruppel-like factor 2 (KLF2) mRNA; experiment: KLF2 mRNA levels in endothelial cells by qRT-PCR; assay type: cell-based, bovine; conditions: 24 h; OTb 1 μg/ml, Ap-OPC 1 μg/ml; normalised to RNA polymerase 2; FIG. 4(A)
Protocol: as §1

endothelin-1 synthesis = experiment: Inhibition of endothelin-1 synthesis by endothelial cells (immunoassay of conditioned media); assay type: cell-based, bovine; conditions: for endothelin-1 synthesis, percentage of basal values: Rb-ET 2 μg/ml, GS-OPC 1 μg/ml, alone or in combination
Protocol: The effects on endothelin-1 synthesis of purified procyanidins and ellagitannins, either alone or in combination, are tested on human, bovine or porcine aortic endothelial cells cultured in multi-well plates. Cells are grown in a CO2 incubator with specific growth media until becoming confluent. Purified extracts, chromatography fractions, or isolated procyanidins and ellagitannins are evaluated after dilution in cell culture media and then incubated for up to 24 h with the cultured cells. At the end of the incubation period cell culture media samples are collected, and endothelin-1 synthesis is determined by immunoassay of the media samples. ET-1 release for each treated well is expressed as a percentage of basal release from control wells containing cells incubated with cell culture medium alone. Data are compared and analysed for statistically significant differences using life sciences software such as Graphpad Prism (available from www.graphpad.com). At the end of the incubation period cells are lysed to obtain mRNA to measure changes in gene expression that indicate improved endothelial function. Analyses of relative levels of mRNA transcripts are undertaken by quantitative reverse transcription polymerase chain reaction (qRT-PCR) (Journal of Agricultural and Food Chemistry, 2010, 58: 4008-13).
Oenothein B (>95% purity) was purified from pomegranate juice by Sephadex LH20 chromatography and reverse-phase HPLC (step 1—Apex Prepsil 8 μm C-18 10×250 mm HPLC column—Jones Chromatography; step 2 Luna 5 μm PFP(2) 4.6×250 mm HPLC column—Phenomenex). Ability to modify endothelial function was assessed by incubating oenothein B with bovine aortic endothelial cells and measuring endothelin-1 synthesis following previously described methods (Journal of Agricultural and Food Chemistry, 2010, 58: 4008-13).
Biologically active biotin-labelled apple oligomeric procyanidins were prepared as follows: apple polyphenol extract was fractionated on Sephadex LH20 to obtain a fraction enriched in apple oligomeric procyanidins (OPC) tetramers to hexamers. The fraction was dried, re-dissolved in dimethyl formamide and reacted with the tetrafluorophenyl ester of triethyleneglycol-biotin (Thermo Scientific EZ-Link™ TFP-PEG3-Biotin). […]
Ellagitannins: oenothein B (OTb, 1 μg/ml), raspberry seed extract (Rb-ET 2 μg/ml); oligomeric procyanidins (OPC): grape seed extract (GS-OPC, 1 μg/ml) and apple extract (Ap-OPC, 1 μg/ml) purified as above, were incubated either alone, or in combination, with bovine aortic endothelial cells for 6 h and 24 h (FIGS. 2(A) and 2(B)). […] Statistical differences were determined by ANOVA (**=P<0.01; ***=P<0.001 indicates significant difference compared to basal values; ^+++=P<0.001 compared to the individual components of the combinations alone). […]

[3] = system: bovine aortic endothelial cells; experiment: Binding of biotinylated-OPC to endothelial cells (neutravidin-horseradish peroxidase/TMB detection); assay type: cell-based; conditions: oenothein B 30 min preincubation, then biotinylated-OPC 1 μg/ml with oenothein B 30 min, FIG. 1(C)
Protocol: Bovine aortic endothelial cells were incubated with oenothein B (μg/ml) from pomegranate juice for 30 min before addition of biotinylated-OPC (1 μg/ml) alone or with oenothein B (μg/ml) for 30 min. After removal of the incubation mixture, bound biotinylated-OPC was detected by incubation with neutravidin-horseradish peroxidase for 1 h; followed by addition of TMB substrate for 30 min after cells had been rinsed twice to remove excess neutravidin-horseradish peroxidase. Binding is indicated relative to biotinylated-OPC alone after subtraction of background signal. (All data are shown as mean±SD; *=P<0.05; **=P<0.01; ***=P<0.001 indicates significant differences from basal or control values). […] From this it can be concluded that oenothein B increases the affinity of endothelial cells for procyanidins, and enhances the effectiveness of procyanidins for reversing endothelial dysfunction.

endothelin-1 (ET-1) mRNA = experiment: Endothelin-1 mRNA levels in endothelial cells by qRT-PCR; assay type: cell-based, bovine; conditions: 24 h; OTb 1 μg/ml, Ap-OPC 1 μg/ml; normalised to RNA polymerase 2; FIG. 4(C)
Protocol: as §1

## O=C(O[C@@H]1[C@H]2OC(=O)c3cc(O)c(O)c(O)c3Oc3cc4c(c(O)c3O)-c3c(cc(O)c(O)c3O)C(=O)OC[C@H]3O[C@@H](O)[C@H](OC(=O)c5cc(O)c(O)c(O)c5Oc5cc6c(c(O)c5O)-c5c(cc(O)c(O)c5O)C(=O)O[C@@H]1[C@@H](COC6=O)O[C@H]2O)[C@@H](OC(=O)c1cc(O)c(O)c(O)c1)[C@@H]3OC4=O)c1cc(O)c(O)c(O)c1 [oenothein B]
[1]
  eNOS mRNA levels, ratio to control: little effect
[2]
  KLF2 mRNA levels, ratio to control: relatively insignificant
endothelin-1 synthesis; 6 h incubation, OTb 1 μg/ml, Ap-OPC 1 μg/ml, FIG. 2(A)
  endothelin-1 synthesis, percentage of basal values: inhibited endothelin-1 synthesis
endothelin-1 synthesis; 24 h, OTb 1 μg/ml, Ap-OPC 1 μg/ml, Example 19, FIG. 4(D)
  endothelin-1 total synthesis: largely unaffected
endothelin-1 synthesis; 24 h incubation, OTb 1 μg/ml, Ap-OPC 1 μg/ml, FIG. 2(B)
  endothelin-1 synthesis, percentage of basal values: much reduced
endothelin-1 synthesis; bovine aortic endothelial cells, FIG. 1(A), 1(B)
  inhibition of endothelin-1 synthesis: concentration dependent
[3]
  binding of biotinylated-OPC relative to biotinylated-OPC alone: binding of procyanidins increases as oenothein B concentration increases
endothelin-1 (ET-1) mRNA
  endothelin-1 (ET-1) mRNA levels, ratio to control: largely unaffected
